Reference: article PMC11040934, “PI3Kγδ inhibition suppresses key disease features in a rat model of asthma” (Respiratory Research, 2024)
Where two headings read alike, the source gives them in different places.

What was measured:
[1] = Lung tissue and plasma levels after intratracheal dosing (LC-MS/MS); format: in vivo
Procedure: (§1) Initially a time course study was performed, followed by a characterisation study with compound & clinical comparator. For both studies, rats were sensitised on day 0, 14 and 21 by an intraperitoneal (i.p.) injection of 4 mL/kg (1 mL/rat) of ovalbumin (OVA;100 μg/rat) in Imject™ Alum (20 mg/rat aluminium hydroxide and 20 mg/rat magnesium hydroxide) or sham sensitised (Saline [Sal] in Imject™ Alum). On day 28 rats were challenged with 1% (w/v) aerosolised OVA in isotonic saline, or sham challenged with isotonic saline (30 mins).
For the time course study, animals were terminally anaesthetized, via overdose i.p. with sodium pentobarbitone (200 mg/kg), 1–24 hrs post antigen challenge. For the compound study, animals were terminally anaesthetised, via overdose i.p. with sodium pentobarbitone (200 mg/kg), 2 or 24 hrs post antigen challenge. […]
50 μL plasma was protein precipitated by addition of 180 μL acetonitrile containing 0.2% formic acid & 50 nM internal standard. […] Plasma concentrations of AZD8154 were determined by liquid chromatography with tandem mass spectrometric detection (LC-MS/MS).
Lung pieces were weighed and homogenised in a 1 mL ringer solution using bead-beating technology (Bertin Technologies, Montigny le Bretonneux, France). […] Lung concentrations of AZD8154 were determined by LC-MS/MS. […]

[2] = tested on: Brown Norway rats, OVA sensitised and challenged; assay: Rat model of allergic asthma: BAL cellular inflammation; format: in vivo, Brown Norway rat; details: BAL 24 hrs after OVA challenge; i.t. dosing
Procedure: (§2) Male, adult, Brown Norway rats were obtained from Charles River Germany at a body weight range of 250-300 g. Animals were housed in temperature controlled individually ventilated cages in groups of 4 with food and water provided ad libitum. Animals underwent acclimatisation for at least 1 week prior to experimentation. Experiments were performed in accordance with the UK Home Office guidelines for animal welfare based on the Animals (Scientific Procedures) Act of 1986 and the ARRIVE guidelines (Fig. E2).
as §1
Following blood collection, rats underwent tracheostomy and were cannulated. Rats were lavaged and bronchoalveolar lavage (BAL) fluid was collected (2 × 3 mL RPMI, 30 secs, 70% vol. retained). Slides were prepared using 100 μL of neat BAL, centrifuged (700 rpm, 5 mins, RT, low acceleration; Cytospin 2, Shandon, Runcorn, UK). 800 μL of neat BAL was collected and centrifuged (800×g, 10 mins, 4 °C). Supernatant was collected and stored (− 80 °C), and cell pellet was resuspended (200 μL, RPMI), total leukocytes were attained using a Sysmex XP-300 automated cell counter (Sysmex Ltd., Milton Keynes, UK). Remaining BAL was centrifuged (800×g, 10 mins, 4 °C) and supernatant collected and stored (− 80 °C).
BAL cytospin slides were placed in an automated stainer (Hematek 2000, Ames. Co., USA) and stained with a Modified-Wright stain (Siemens, Germany). Differential cell counts using a light microscope were performed based on morphological criteria were performed to determine percentages of macrophages/monocytes, lymphocytes, neutrophils & eosinophils. Total numbers of each distinct cell type were determined based on total leukocyte numbers.

[3] = tested on: Brown Norway rats, OVA sensitised and challenged; assay: Rat model of allergic asthma: late asthmatic response (Penh, whole body plethysmography); format: in vivo, Brown Norway rat; details: 1-6 hrs after OVA challenge; i.t. dosing
Procedure: as §2
as §1, with “On day 28 rats were challenged with 1% (w/v) aerosolised OVA in isotonic saline, or sham challenged with isotonic saline (30 mins).” left out
In both studies, 30 mins post-challenge, rats were placed unrestrained in Perspex plethysmographs connected to bias flow pumps (DSI Europe Ltd), with food and water ad libitum. 55 mins post-challenge, a five mins baseline recording was taken and the average penh and area under the curve (AUC) was recorded at 10 mins intervals for a total duration of 5 hrs and was used for analysis (DSI Europe Ltd).

[4] = Human plasma protein binding and unbound fraction in assay media; format: in vitro ADME
Procedure: PI3K δ assay: single cell suspension was obtained from the spleen of male Sprague Dawley rat; cells were cultured in RPMI containing heat-inactivated 10% FBS, pre-treated (1 hr., 37 °C, 5% CO2) with vehicle DMSO or PI3K inhibitors, followed by stimulation with AffiniPure F(ab’)2 Fragment Goat Anti-Rat IgM, μ chain specific, Jackson Immunoresearch (112–006-075) at 5 μg/mL (EC80 determined in house; 20–22 hrs). Then, cells were washed with FACS buffer (2% FBS, […]) and stained (15 mins, 4 °C) with Fc block (1:100, 550,273, BD bioscience), LIVE/DEAD Fixable Aqua Dead Cell Stain Kit (L34957, Invitrogen, 1:300), CD45R (B220)-PeCy7 (HIS24) (25–0460-82, eBioscience, 1:100), CD3-AF647 (IF4) (201,408, Biolegend, 1:100), CD86-FITC (24F) (200,305, Biolegend, 1:50). Cells were acquired on the Flow Cytometer (BD LSRFortessa™) and analysed using FlowJo 9.9 software (TreeStar). FACS gating strategy: lymphocytes (FSC-A vs SSC-A), doublets exclusion (FSC-W vs FSC-H), live cells (Aqua-530-), B cell identification CD3- B220 + % of positive B cells for CD86. IC50 values were determined in Graph Pad through a nonlinear fit on log transform data: log inhibitor vs response, variable slope, 4 parameters. Fraction unbound in in vitro assay is calculated using the following equation: fu^′=DF·fup/1+DF-1·fup where fu’ is the fraction unbound in assay media; fup is the experimentally determined fraction unbound in undiluted human plasma; DF is the dilution factor (fold difference between protein concentration in human plasma and assay media, using an albumin concentration of 600 μM (40 g/L) for undiluted plasma) Table 2.

Cc1nc(Nc2cccc(N3CCCC3=O)n2)sc1-c1cc2c(c(S(C)(=O)=O)c1)C(=O)N([C@@H](C)C1CC1)C2 [AZD8154]
Mean concentration in lung tissue and plasma versus dose ([1]; i.t. 0.02, 0.1, 0.3 mg/kg, 2 & 24 hrs post-challenge): increased with increasing dose | level in lung tissue compared to plasma ([1]; i.t., up to 24 hrs post-dosing): significantly higher in the lung tissue | BAL eosinophils [2]: statistically significant decrease | BAL neutrophils [2]: statistically significant decrease | LAR (Penh, AUC) [3]: statistically significant dose-dependent decrease | fraction unbound ([4]; human plasma, fraction unbound, read-out: Human ppb (fu, %)): 0.0063 | fraction unbound ([4]; human, assay media (PI3K δ assay), fraction unbound in assay media (δ assay, RPMI 10% FBS), read-out: Fu’): 0.06
